According to patent US6632809B2, “Gyrase inhibitors and uses thereof” (Vertex Pharmaceuticals Incorporated, priority 2000, dated 2003):
Values after ≈ are worked out from the molar mass of the structure shown.

Experiments:
[1] = molecular target: DNA gyrase (374 kDa Gyr A2B2 subunit from Staphylococcus aureus) (Staphylococcus aureus, UniProt P0A0K8); experiment: Gyrase ATPase Assay; type: biochemical; details: 10 μM concentration; ATPase assay at 30° C., 0.9 mM ATP; average of duplicate values; read-out: Gyrase Inhibitory Activity (percent inhibition)
Chain of DNA gyrase (374 kDa Gyr A2B2 subunit from Staphylococcus aureus) (P0A0K8 whole entry): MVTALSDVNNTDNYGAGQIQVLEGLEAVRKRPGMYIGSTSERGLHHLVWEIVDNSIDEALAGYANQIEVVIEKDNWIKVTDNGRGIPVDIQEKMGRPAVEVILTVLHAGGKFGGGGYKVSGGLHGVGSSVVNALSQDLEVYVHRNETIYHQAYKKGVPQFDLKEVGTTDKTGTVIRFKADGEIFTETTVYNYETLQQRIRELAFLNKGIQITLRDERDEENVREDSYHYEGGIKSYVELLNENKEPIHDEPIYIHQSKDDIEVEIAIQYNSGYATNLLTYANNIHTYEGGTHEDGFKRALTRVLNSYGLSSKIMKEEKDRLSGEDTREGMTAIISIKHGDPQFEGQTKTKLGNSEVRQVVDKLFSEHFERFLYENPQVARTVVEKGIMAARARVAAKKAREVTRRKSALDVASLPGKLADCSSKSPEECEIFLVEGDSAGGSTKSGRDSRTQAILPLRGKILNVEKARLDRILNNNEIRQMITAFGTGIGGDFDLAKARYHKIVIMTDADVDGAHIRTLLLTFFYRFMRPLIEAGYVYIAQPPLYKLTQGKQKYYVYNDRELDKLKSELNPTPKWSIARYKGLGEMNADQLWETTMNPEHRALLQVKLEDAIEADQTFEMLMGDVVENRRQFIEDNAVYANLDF
Chain of DNA gyrase (374 kDa Gyr A2B2 subunit from Staphylococcus aureus) (P20831 whole entry, further chain): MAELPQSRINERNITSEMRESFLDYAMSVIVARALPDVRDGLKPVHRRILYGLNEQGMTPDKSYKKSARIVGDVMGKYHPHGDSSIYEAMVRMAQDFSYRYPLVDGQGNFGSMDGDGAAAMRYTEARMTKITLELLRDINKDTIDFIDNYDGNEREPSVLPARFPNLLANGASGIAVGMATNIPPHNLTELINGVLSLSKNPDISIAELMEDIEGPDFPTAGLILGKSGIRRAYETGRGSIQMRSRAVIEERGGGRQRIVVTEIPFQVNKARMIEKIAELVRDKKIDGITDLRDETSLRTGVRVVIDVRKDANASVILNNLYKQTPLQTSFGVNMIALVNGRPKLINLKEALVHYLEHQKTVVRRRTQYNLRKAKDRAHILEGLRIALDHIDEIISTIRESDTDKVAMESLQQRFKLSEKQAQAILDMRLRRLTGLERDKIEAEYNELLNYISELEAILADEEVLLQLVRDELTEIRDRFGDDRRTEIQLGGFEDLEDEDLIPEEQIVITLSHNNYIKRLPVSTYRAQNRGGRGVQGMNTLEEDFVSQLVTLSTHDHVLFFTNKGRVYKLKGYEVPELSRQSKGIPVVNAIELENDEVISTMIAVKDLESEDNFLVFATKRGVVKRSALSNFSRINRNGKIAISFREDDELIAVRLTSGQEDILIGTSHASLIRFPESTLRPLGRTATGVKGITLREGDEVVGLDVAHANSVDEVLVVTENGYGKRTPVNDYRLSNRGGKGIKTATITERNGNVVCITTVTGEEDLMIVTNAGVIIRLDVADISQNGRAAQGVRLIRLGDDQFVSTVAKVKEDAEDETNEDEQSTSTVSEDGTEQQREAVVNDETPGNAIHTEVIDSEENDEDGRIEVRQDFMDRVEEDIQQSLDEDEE
Method: The ATP hydrolysis activity of DNA gyrase was measure by coupling the production of ADP through pyruvate kinase/lactate dehydrogenase to the oxidation of NADH. This method has been described previously (Tamura and Gellert, 1990, J. Biol. Chem., 265, 21342).
ATPase assays are carried out at 30° C. in buffered solutions containing 100 mM TRIS pH 7.6, 1.5 mM MgCl2, 50 mM KCl. The coupling system contains (final concentrations) 2.5 mM phosphoenol pyruvate, 200 μM nicotinamide adenine dinucleotide (NADH), 1 mM DTT, […], and 10 ug/ml lactate dehydrogenase. 40 nanomolar enzyme (374 kDa Gyr A2B2 subunit from Staphylococcus aureus) and a DMSO solution of the inhibitor to a final concentration of 4% are added and the reaction mixture is allowed to incubate for 10 minutes at 30° C. The reaction is then started by the addition of ATP to a final concentration of 0.9 mM and the rate of NADH disappearance at 340 nanometers is measured over the course of 10 minutes. The percent inhibition values are determined from rate versus concentration profiles and are reported as the average of duplicate values.
The compound numbers correspond to the compound numbers in Table 1. Compounds having an activity designated as “A” provided a percent inhibition value below 50 percent; compounds having an activity designated as “B” provided a percent inhibition value between 50 and 75 percent; and compounds having an activity designated as “C” provided a percent inhibition value greater than 75 percent.

[2] = test system: test bacteria; experiment: Susceptibility Testing in Liquid Media (MIC assay); type: cell-based; details: broth dilution, MHB, 35° C. overnight (16 to 20 hr); organism not given; read-out: MIC (minimal inhibitory concentration) activity level
Method: Susceptibility Testing in Liquid Media
Compounds of this invention were also tested for antimicrobial activity by susceptibility testing in liquid media. Such assays were performed within the guidelines of the latest NCCLS document governing such practices: “M7-A5 Methods for dilution Antimicrobial Susceptibility Tests for Bacteria that Grow Aerobically; Approved Standard—Fifth Edition (2000)”. Other publications such as “Antibiotics in Laboratory Medicine” (Edited by V. Lorian, Publishers Williams and Wilkins, 1996) provide essential practical techniques in laboratory antibiotic testing. Essentially, several discrete bacterial colonies (3 to 7) from a freshly streaked plate were transferred to an appropriate rich broth medium such as MHB, supplemented where appropriate for the more fastidious organisms. This was grown overnight to high density followed by a 1 or 2-thousand-fold dilution to give an inoculation density of between 5×10^5 and 5×10^6 CFU per mL. Alternatively, the freshly picked colonies can be incubated at 37° C. for about 4 to 8 hrs until the culture equals or exceeds a turbidity of a 0.5 McFarland standard (approximately 1.5×10^8 cells per mL) and diluted to give the same CFU per mL as above. In a more convenient method, the inoculum was prepared using a commercially available mechanical device (the BBL PROMPT System) that involves touching five colonies directly with a wand, containing crosshatch grooves at its bottom, followed by suspension of the bacteria in an appropriate volume of saline. Dilution to the appropriate inoculum cell density was made from this cell suspension. The broth used for testing consists of MHB supplemented with 50 mg per L of Ca^2+ and 25 mg per L of Mg^2+. Standard dilution panels of control antibiotics were made and stored as in the NCCLS standard M7-A5, the dilution range typically being in the 128 μg per mL to 0.015 μg per mL (by 2-fold serial dilution). The test compounds were dissolved and diluted fresh for experimentation on the same day; the same or similar ranges of concentration as above being used. The test compounds and controls were dispensed into a multiwell plate and test bacteria added such that the final inoculation was approximately 5×10^4 CFU per well and the final volume was 100 μL. The plates were incubated at 35° C. overnight (16 to 20 hr) and checked by eye for turbidity or quantitated with a multiwell plate reader. […] Such determinations were also compared to the appropriate tables contained in the above two publications to ensure that the range of antibacterial activity is within the acceptable range for this standardized assay.
The compound numbers correspond to the compound numbers in Table 1.

SMILES	inhibition at 10 µM [1] [%]	MIC [2] [mg/L]
CCNC(=O)Nc1nc2cc(-c3cccnc3)c(OC)c(F)c2[nH]1 [Ia-183]	50 to 75	> 40
CCNC(=O)Nc1nc2cc(-n3cnc(C(=O)O)c3)ccc2[nH]1 [Ia-157, 1-[2-(3-Ethyl-ureido)-3H-benzoimidazol-5-yl]-1H-imidazole-4-carboxylic acid]	> 75	> 40
CCNC(=O)Nc1nc2cc(-c3cccnc3)cc(OCc3ccccc3)c2[nH]1 [Ia-168]	> 75	< 10
CCNC(=O)Nc1nc2cc(-n3cc(C(=O)NCc4cccnc4)cn3)ccc2[nH]1 [Ia-174]	> 75	> 40
CCNC(=O)Nc1nc2cc(-c3cccnc3)c(N3CCCCC3)cc2[nH]1 [Ia-178]	> 75	< 10
CCNC(=O)Nc1nc2cc(-c3ccc(N4CCOCC4)nc3)ccc2[nH]1 [Ia-166]	> 75	> 40
CCCNC(=O)Nc1nc2cc(-c3cccnc3)ccc2[nH]1 [Ia-119]	> 75	> 40
CCNC(=O)Nc1nc2cc(-c3ccc(OCC)nc3)ccc2[nH]1 [Ia-163]	> 75	< 10
CCNC(=O)Nc1nc2cc(-c3cccnc3)c(OCCOC)c(C)c2[nH]1 [Ia-149]	> 75	> 40
CSc1ncc(-c2ccc3[nH]c(NC(=O)NC(C)C)nc3c2)cn1 [Ia-116]	50 to 75	> 40
CCNC(=O)Nc1nc2nc(-n3cnc(C(=O)O)c3)ccc2[nH]1 [Ia-185]	> 75	> 40
CCNC(=O)Nc1nc2cc(-c3ccc(N4CCCCC4)nc3)ccc2[nH]1 [Ia-175]	> 75	> 40
CCNC(=O)Nc1nc2cc(-c3nnc(C)o3)ccc2[nH]1 [Ia-150]	50 to 75	> 40
O=C(Nc1nc2cc(-c3cccnc3)ccc2[nH]1)NC1CCCC1 [Ia-121]	< 50	> 40
C=CCNC(=O)c1cn(-c2ccc3[nH]c(NC(=O)NCC)nc3c2)cn1 [Ia-188]	> 75	< 10
CCNC(=O)Nc1nc2cc(-c3cccnc3)c(C)c(C)c2[nH]1 [Ia-142]	> 75	< 10
CCNC(=O)Nc1nc2cc(-c3cccnc3)c(N3CCCC3)cc2[nH]1 [Ia-180]	> 75	10 to 40 (≈ 28.5 to 114 µM)

SMILES	inhibition at 10 µM [1] [%]	MIC [2] [mg/L]
CCOC(=O)Nc1nc2cc(-c3cncc(NC(C)=O)c3)ccc2[nH]1 [Ia-122]	> 75	> 40
CCNC(=O)Nc1nc2cc(-c3cccc(F)c3F)ccc2[nH]1 [Ia-152]	> 75	10 to 40 (≈ 31.6 to 126 µM)
CC(C)NC(=O)Nc1nc2cc(-c3cccnc3)ccc2[nH]1 [Ia-120]	50 to 75	> 40
CCNC(=O)Nc1nc2cc(-n3cnc(C(=O)N4CCOCC4)c3)ccc2[nH]1 [Ia-170]	> 75	> 40
CCNC(=O)Nc1nc2cc(-c3cccnc3)c(OC)c(C)c2[nH]1 [Ia-147]	50 to 75	> 40
CCNC(=O)Nc1nc2nc(-n3cnc(C(=O)NC4CC4)c3)ccc2[nH]1 [Ia-187]	> 75	10 to 40 (≈ 28.2 to 113 µM)
CCNC(=O)Nc1nc2cc(-n3cc(C(=O)NCC(C)C)cn3)ccc2[nH]1 [Ia-173]	> 75	10 to 40 (≈ 27.1 to 108 µM)
CCNC(=O)Nc1nc2cc(-c3cccnc3)cc(C)c2[nH]1 [Ia-58]	> 75	< 10
CCNC(=O)Nc1nc2cc(-c3ccc(CNC(=O)OC(C)(C)C)nc3)ccc2[nH]1 [Ia-148]	> 75	10 to 40 (≈ 24.4 to 97.4 µM)
CCNC(=O)Nc1nc2cc(-c3cccnc3)c(N3CCOCC3)cc2[nH]1 [Ia-164]	> 75	> 40
CCNC(=O)Nc1nc2cc(-n3cc(C(=O)O)cn3)ccc2[nH]1 [Ia-162]	> 75	> 40
CC(C)CNC(=O)Nc1nc2cc(-c3ccc(F)nc3)ccc2[nH]1 [Ia-159]	< 50	> 40
C=CCCCOc1ccc(-c2ccc3[nH]c(NC(=O)NCC)nc3c2)cn1 [Ia-182]	> 75	> 40
CCNC(=O)Nc1nc2cc(-n3ccc(=O)c(O)c3C)ccc2[nH]1 [Ia-161]	< 50	> 40
CCNC(=O)Nc1nc2cc(-c3cnc(NC(C)COC)nc3)cc(C)c2[nH]1 (stereo not drawn) [Ia-141]	> 75	< 10
CCNC(=O)Nc1nc2cc(-c3occc(=O)c3O)ccc2[nH]1 [Ia-181]	50 to 75	> 40
